Experimental data taken from ChEMBL document CHEMBL1201862, “PubChem BioAssay data set” (2004).
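Values below derive from 48-hour exposures of cells grown in 96-well plates, with endpoints linearly interpolated between the two concentrations bracketing the appropriate inhibition level. At the GI50, growth is halved.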 The source made the active and inactive calls. No stated cut-off is given here; in the data, active = GI50 up to about 1.1 µM and inactive = higher.

How the values were obtained:
Experiment in all cases: NCI-60 cell line screen, 48 h
A549 = system: A549
CAKI-1 = system: CAKI-1
CCRF-CEM = system: CCRF-CEM
K562 = system: K562
KM12 = system: KM12
M14 = system: M14
MOLT-4 = system: MOLT-4
OVCAR-5 = system: OVCAR-5
OVCAR-8 = system: OVCAR-8
RXF 393 = system: RXF 393
SF-268 = system: SF-268
SK-MEL-2 = system: SK-MEL-2
SK-MEL-5 = system: SK-MEL-5
SK-OV-3 = system: SK-OV-3
SNB-75 = system: SNB-75
U-251 = system: U-251
UACC-62 = system: UACC-62
Hs-578T = system: Hs-578T
PC-3 = system: PC-3
T47D = system: T47D

SMILES | GI50 (A549) | GI50 (CAKI-1) | GI50 (CCRF-CEM) | GI50 (K562) | GI50 (KM12) | GI50 (M14) | GI50 (MOLT-4) | GI50 (OVCAR-5) | GI50 (OVCAR-8) | GI50 (RXF 393) | GI50 (SF-268) | GI50 (SK-MEL-2) | GI50 (SK-MEL-5) | GI50 (SK-OV-3) | GI50 (SNB-75) | GI50 (U-251) | GI50 (UACC-62) | GI50 (Hs-578T) | GI50 (PC-3) | GI50 (T47D)
N#CC(C(=O)C(=O)Nc1c(Cl)cccc1Cl)c1ccccc1 (stereo unspecified) | > 10 µM (inactive) | > 10 µM (inactive) | > 10 µM (inactive) | > 10 µM (inactive) | > 10 µM (inactive) | > 10 µM (inactive) | > 10 µM (inactive) | 0.906 µM (active) | > 100 µM (inactive) | > 10 µM (inactive) | > 10 µM (inactive) | > 10 µM (inactive) | > 10 µM (inactive) | > 10 µM (inactive) | > 10 µM (inactive) | > 10 µM (inactive) | > 10 µM (inactive) | – | – | –
Cc1cccc(/N=N/c2ccc(/N=N/c3c(O)ccc4ccccc34)cc2C)c1 | 80 µM (inactive) | 40.2 µM (inactive) | > 100 µM (inactive) | > 100 µM (inactive) | > 100 µM (inactive) | 41.7 µM (inactive) | > 100 µM (inactive) | > 100 µM (inactive) | 7.05 µM (inactive) | 27 µM (inactive) | > 100 µM (inactive) | > 100 µM (inactive) | > 100 µM (inactive) | 28.4 µM (inactive) | 0.144 µM (active) | 54.2 µM (inactive) | 72.4 µM (inactive) | 33.9 µM (inactive) | 88.3 µM (inactive) | –
CCOC(=O)C1=C(C)N(c2ccc(C)cc2)C2(O)C=CC(O)=C3C(=O)c4ccccc4C(=O)C312 (stereo unspecified) | 37.8 µM (inactive) | 32.2 µM (inactive) | 5.05 µM (inactive) | – | 35.6 µM (inactive) | 36.6 µM (inactive) | 0.374 µM (active) | 54.2 µM (inactive) | 21.6 µM (inactive) | 28.8 µM (inactive) | 45.2 µM (inactive) | 37.1 µM (inactive) | 19.7 µM (inactive) | 35.7 µM (inactive) | 24.1 µM (inactive) | 39.7 µM (inactive) | 33.1 µM (inactive) | – | 25.1 µM (inactive) | –
O=c1[nH]c2c(c(=O)[nH]1)SC(c1ccccc1)C2 (stereo unspecified) | > 100 µM (inactive) | > 100 µM (inactive) | > 100 µM (inactive) | > 100 µM (inactive) | > 100 µM (inactive) | > 100 µM (inactive) | > 100 µM (inactive) | > 100 µM (inactive) | > 100 µM (inactive) | > 100 µM (inactive) | > 100 µM (inactive) | 93.8 µM (inactive) | > 100 µM (inactive) | – | 86.9 µM (inactive) | > 100 µM (inactive) | – | > 100 µM (inactive) | > 100 µM (inactive) | –
CCCCc1c2c(nc3c1CCc1cc(C=O)c(N)nc1-3)/C(=C/c1ccccc1)CCC2 | 19.6 µM (inactive) | > 100 µM (inactive) | > 100 µM (inactive) | > 100 µM (inactive) | > 100 µM (inactive) | > 100 µM (inactive) | 52.2 µM (inactive) | > 100 µM (inactive) | 46.2 µM (inactive) | > 100 µM (inactive) | > 100 µM (inactive) | > 100 µM (inactive) | > 100 µM (inactive) | > 100 µM (inactive) | > 100 µM (inactive) | > 100 µM (inactive) | > 100 µM (inactive) | – | – | –
COc1ccccc1/C=C(\NC(=O)c1ccccc1)c1nc2ccccc2[nH]1 | 46.8 µM (inactive) | 87.3 µM (inactive) | 40.6 µM (inactive) | 32.9 µM (inactive) | 32.6 µM (inactive) | 39.8 µM (inactive) | 36.7 µM (inactive) | > 100 µM (inactive) | 38 µM (inactive) | 76.6 µM (inactive) | 37.3 µM (inactive) | 27.4 µM (inactive) | 23.3 µM (inactive) | 51.1 µM (inactive) | 31.5 µM (inactive) | 47.2 µM (inactive) | 45 µM (inactive) | – | – | –
O=C1c2cccc3cccc(c23)C(=O)N1CCCNOCCONCCCN1C(=O)c2cccc3cccc(c23)C1=O | 95.9 µM (inactive) | 49.3 µM (inactive) | 11.8 µM (inactive) | 27 µM (inactive) | > 100 µM (inactive) | 62.4 µM (inactive) | 12.1 µM (inactive) | > 100 µM (inactive) | 43.3 µM (inactive) | 29.4 µM (inactive) | 79.4 µM (inactive) | > 100 µM (inactive) | 58.5 µM (inactive) | > 100 µM (inactive) | 42.6 µM (inactive) | 59.7 µM (inactive) | > 100 µM (inactive) | 92.3 µM (inactive) | 55.1 µM (inactive) | –
CC(C)[Si](OC12CCC(CC1O)CC2CO)(C(C)C)C(C)C (stereo unspecified) | 10.4 µM (inactive) | 18.7 µM (inactive) | 13.4 µM (inactive) | 14.7 µM (inactive) | 12.7 µM (inactive) | 15.1 µM (inactive) | 11.5 µM (inactive) | 17.4 µM (inactive) | 16.2 µM (inactive) | – | 14.6 µM (inactive) | 15.8 µM (inactive) | 18.3 µM (inactive) | 14.4 µM (inactive) | 13.9 µM (inactive) | 12.6 µM (inactive) | 14.9 µM (inactive) | – | 11.8 µM (inactive) | 9.77 µM (inactive)
